Assay results as given in PMC10538245, “Fragment merging approach for design, synthesis, and biological assessment of urea/acetyl hydrazide clubbed thienopyrimidine derivatives as GSK-3β inhibitors” (BMC Chemistry, 2023).

Tests used:
[1] = tested on: HS 578 T; experiment: NCI 60-cell line one dose antiproliferative assay; assay type: cell-based; conditions: Homo sapiens, Breast Cancer, 10 µM one dose, read-out: Percent inhibition (cell growth inhibition %)
Text: (§1) The National Cancer Institute "NCI", NIH, Bethesda, Maryland, USA (www.dtp.nci.nih.gov) chose six of the final compounds for the Developmental Therapeutic Program (DTP), codes (5a, 5b, 5c, 5d, 6a, 6b). The NCI screening service will favor compounds with drug-like modes of action based on computer-aided design. Selection The criterion for screening is the possibility of the submitted compounds to provide diversity to the NCI small molecule chemical collection. This screen employs 60 different Leukemia, melanoma, and additional tumor cell lines of the human from brain, kidney, lung, ovary, colon, breast, and prostate cancers. All compounds were picked based on their NCI codes. NSC: D-820696/1, NSC: D-820697/1, NSC: D-820698/1, NSC: D-820699/1, NSC: D-820700/1, NSC: D-820701/1. The initial 10 µM one dose percent inhibition assay was performed on the entire NCI 60 cell panel to examine the different chemotypes of this work. The results are presented as a percentage of cell growth on each of the 60 NCI cell line panels for each of the investigated substances in Table 2.
(§2) The NCI cancer screening procedure includes a comparison of all substances to the sixty NCI cell line panel representing leukemia, NSCLC, cell lines from breast cancer, prostate cancer, melanoma, CNS cancer, renal cancer, ovarian cancer, and colon cancer at a single point of 10 uM. The results of the single-dose screen can be presented using a mean graph.

[2] = tested on: SN12C; experiment: NCI 60-cell line one dose antiproliferative assay; assay type: cell-based; conditions: Homo sapiens, Renal Cancer, 10 µM one dose, read-out: Percent inhibition (cell growth inhibition %)
Text: as §1, §2

[3] = tested on: U251; experiment: NCI 60-cell line one dose antiproliferative assay; assay type: cell-based; conditions: Homo sapiens, U-251; U251, CNS Cancer, 10 µM one dose; read-out: Percent inhibition (cell growth inhibition %)
Text: as §1, §2

[4] = tested on: IGROV1; experiment: NCI 60-cell line one dose antiproliferative assay; assay type: cell-based; conditions: Homo sapiens, IGROV-1; IGROV1, Ovarian Cancer, 10 µM one dose; read-out: Percent inhibition (cell growth inhibition %)
Text: as §1, §2

[5] = tested on: SF-295; experiment: NCI 60-cell line one dose antiproliferative assay; assay type: cell-based; conditions: Homo sapiens; SF-295, CNS Cancer, 10 µM one dose; read-out: Percent inhibition (cell growth inhibition %)
Text: as §1, §2

[6] = tested on: SNB-19; experiment: NCI 60-cell line one dose antiproliferative assay; assay type: cell-based; conditions: Homo sapiens; SNB-19, CNS Cancer, 10 µM one dose; read-out: Percent inhibition (cell growth inhibition %)
Text: as §1, §2

[7] = tested on: NCI-H226; experiment: NCI 60-cell line one dose antiproliferative assay; assay type: cell-based; conditions: Homo sapiens; NCI-H226, Non-Small Cell Lung Cancer, 10 µM one dose; read-out: Percent inhibition (cell growth inhibition %)
Text: as §1, §2

[8] = tested on: MALME-3 M; experiment: NCI 60-cell line one dose antiproliferative assay; assay type: cell-based; conditions: Homo sapiens, Melanoma, 10 µM one dose, read-out: Percent inhibition (cell growth inhibition %)
Text: as §1, §2

[9] = tested on: UO-31; experiment: NCI 60-cell line one dose antiproliferative assay; assay type: cell-based; conditions: Homo sapiens; UO-31, Renal Cancer, 10 µM one dose; read-out: Percent inhibition (cell growth inhibition %)
Text: as §1, §2

[10] = tested on: A498; experiment: NCI 60-cell line one dose antiproliferative assay; assay type: cell-based; conditions: Homo sapiens; A498, Renal Cancer, 10 µM one dose; read-out: Percent inhibition (cell growth inhibition %)
Text: as §1, §2

[11] = tested on: T-47D; experiment: NCI 60-cell line one dose antiproliferative assay; assay type: cell-based; conditions: Homo sapiens, T47D, Breast Cancer, 10 µM one dose, read-out: Percent inhibition (cell growth inhibition %)
Text: as §1, §2

[12] = tested on: UACC-62; experiment: NCI 60-cell line one dose antiproliferative assay; assay type: cell-based; conditions: Homo sapiens; UACC-62, Melanoma, 10 µM one dose; read-out: Percent inhibition (cell growth inhibition %)
Text: as §1, §2

[13] = tested on: MDA-MB-231/ATCC; experiment: NCI 60-cell line one dose antiproliferative assay; assay type: cell-based; conditions: Homo sapiens, Breast Cancer, 10 µM one dose, read-out: Percent inhibition (cell growth inhibition %)
Text: as §1, §2

[14] = tested on: HOP-92; experiment: NCI 60-cell line one dose antiproliferative assay; assay type: cell-based; conditions: Homo sapiens; HOP-92, Non-Small Cell Lung Cancer, 10 µM one dose; read-out: Percent inhibition (cell growth inhibition %)
Text: as §1, §2

[15] = tested on: K-562; experiment: NCI 60-cell line one dose antiproliferative assay; assay type: cell-based; conditions: Homo sapiens, K562; K-562, Leukemia, 10 µM one dose; read-out: Percent inhibition (cell growth inhibition %)
Text: as §1, §2

[16] = tested on: SK-MEL-5; experiment: NCI 60-cell line one dose antiproliferative assay; assay type: cell-based; conditions: Homo sapiens; SK-MEL-5, Melanoma, 10 µM one dose; read-out: Percent inhibition (cell growth inhibition %)
Text: as §1, §2

[17] = tested on: CAKI-1; experiment: NCI 60-cell line one dose antiproliferative assay; assay type: cell-based; conditions: Homo sapiens; CAKI-1, Renal Cancer, 10 µM one dose; read-out: Percent inhibition (cell growth inhibition %)
Text: as §1, §2

[18] = tested on: SR; experiment: NCI 60-cell line one dose antiproliferative assay; assay type: cell-based; conditions: Homo sapiens, Leukemia, 10 µM one dose, read-out: Percent inhibition (cell growth inhibition %)
Text: as §1, §2

[19] = tested on: NCI-H522; experiment: NCI 60-cell line one dose antiproliferative assay; assay type: cell-based; conditions: Homo sapiens; NCI-H522, Non-Small Cell Lung Cancer, 10 µM one dose; read-out: Percent inhibition (cell growth inhibition %)
Text: as §1, §2

[20] = tested on: OVCAR-5; experiment: NCI 60-cell line one dose antiproliferative assay; assay type: cell-based; conditions: Homo sapiens; OVCAR-5, Ovarian Cancer, 10 µM one dose; read-out: Percent inhibition (cell growth inhibition %)
Text: as §1, §2

[21] = tested on: 786–0; experiment: NCI 60-cell line one dose antiproliferative assay; assay type: cell-based; conditions: Homo sapiens; 786–0, Renal Cancer, 10 µM one dose; read-out: Percent inhibition (cell growth inhibition %)
Text: as §1, §2

[22] = tested on: PC-3; experiment: NCI 60-cell line one dose antiproliferative assay; assay type: cell-based; conditions: Homo sapiens; PC-3, Prostate Cancer, 10 µM one dose; read-out: Percent inhibition (cell growth inhibition %)
Text: as §1, §2

[23] = tested on: SF-539; experiment: NCI 60-cell line one dose antiproliferative assay; assay type: cell-based; conditions: Homo sapiens; SF-539, CNS Cancer, 10 µM one dose; read-out: Percent inhibition (cell growth inhibition %)
Text: as §1, §2

[24] = tested on: SNB-75; experiment: NCI 60-cell line one dose antiproliferative assay; assay type: cell-based; conditions: Homo sapiens; SNB-75, CNS Cancer, 10 µM one dose; read-out: Percent inhibition (cell growth inhibition %)
Text: as §1, §2

[25] = tested on: MCF7; experiment: NCI 60-cell line one dose antiproliferative assay; assay type: cell-based; conditions: Homo sapiens; MCF7, Breast Cancer, 10 µM one dose; read-out: Percent inhibition (cell growth inhibition %)
Text: as §1, §2

[26] = tested on: SF-268; experiment: NCI 60-cell line one dose antiproliferative assay; assay type: cell-based; conditions: Homo sapiens; SF-268, CNS Cancer, 10 µM one dose; read-out: Percent inhibition (cell growth inhibition %)
Text: as §1, §2

[27] = tested on: LOX IMVI; experiment: NCI 60-cell line one dose antiproliferative assay; assay type: cell-based; conditions: Homo sapiens, Melanoma, 10 µM one dose, read-out: Percent inhibition (cell growth inhibition %)
Text: as §1, §2

[28] = tested on: ACHN; experiment: NCI 60-cell line one dose antiproliferative assay; assay type: cell-based; conditions: Homo sapiens, Renal Cancer, 10 µM one dose, read-out: Percent inhibition (cell growth inhibition %)
Text: as §1, §2

[29] = tested on: M14; experiment: NCI 60-cell line one dose antiproliferative assay; assay type: cell-based; conditions: Homo sapiens; M14, Melanoma, 10 µM one dose; read-out: Percent inhibition (cell growth inhibition %)
Text: as §1, §2

[30] = target: GSK-3β (Homo sapiens, UniProt P49841); experiment: GSK-3β kinase inhibition, Z'-LYTE FRET assay (Thermo Fisher SelectScreen); assay type: biochemical; conditions: for inhibition at 100 µM: 100 μM single dose
[31] = tested on: EKVX; experiment: NCI 60-cell line one dose antiproliferative assay; assay type: cell-based; conditions: Homo sapiens, Non-Small Cell Lung Cancer, 10 µM one dose, read-out: Percent inhibition (cell growth inhibition %)
Text: as §1, §2

[32] = tested on: RPMI-8226; experiment: NCI 60-cell line one dose antiproliferative assay; assay type: cell-based; conditions: Homo sapiens; RPMI-8226, Leukemia, 10 µM one dose; read-out: Percent inhibition (cell growth inhibition %)
Text: as §1, §2

[33] = tested on: RXF 393; experiment: NCI 60-cell line one dose antiproliferative assay; assay type: cell-based; conditions: Homo sapiens; RXF 393, Renal Cancer, 10 µM one dose; read-out: Percent inhibition (cell growth inhibition %)
Text: as §1, §2

[34] = tested on: NCI-H322M; experiment: NCI 60-cell line one dose antiproliferative assay; assay type: cell-based; conditions: Homo sapiens, Non-Small Cell Lung Cancer, 10 µM one dose, read-out: Percent inhibition (cell growth inhibition %)
Text: as §1, §2

[35] = tested on: A549/ ATCC; experiment: NCI 60-cell line one dose antiproliferative assay; assay type: cell-based; conditions: Homo sapiens, Non-Small Cell Lung Cancer, 10 µM one dose, read-out: Percent inhibition (cell growth inhibition %)
Text: as §1, §2

[36] = tested on: HCT-116; experiment: NCI 60-cell line one dose antiproliferative assay; assay type: cell-based; conditions: Homo sapiens; HCT-116, Colon Cancer, 10 µM one dose; read-out: Percent inhibition (cell growth inhibition %)
Text: as §1, §2

[37] = tested on: NCI-H23; experiment: NCI 60-cell line one dose antiproliferative assay; assay type: cell-based; conditions: Homo sapiens; NCI-H23, Non-Small Cell Lung Cancer, 10 µM one dose; read-out: Percent inhibition (cell growth inhibition %)
Text: as §1, §2

[38] = tested on: HCT-15; experiment: NCI 60-cell line one dose antiproliferative assay; assay type: cell-based; conditions: Homo sapiens; HCT-15, Colon Cancer, 10 µM one dose; read-out: Percent inhibition (cell growth inhibition %)
Text: as §1, §2

Sequence of GSK-3β (P49841 whole entry): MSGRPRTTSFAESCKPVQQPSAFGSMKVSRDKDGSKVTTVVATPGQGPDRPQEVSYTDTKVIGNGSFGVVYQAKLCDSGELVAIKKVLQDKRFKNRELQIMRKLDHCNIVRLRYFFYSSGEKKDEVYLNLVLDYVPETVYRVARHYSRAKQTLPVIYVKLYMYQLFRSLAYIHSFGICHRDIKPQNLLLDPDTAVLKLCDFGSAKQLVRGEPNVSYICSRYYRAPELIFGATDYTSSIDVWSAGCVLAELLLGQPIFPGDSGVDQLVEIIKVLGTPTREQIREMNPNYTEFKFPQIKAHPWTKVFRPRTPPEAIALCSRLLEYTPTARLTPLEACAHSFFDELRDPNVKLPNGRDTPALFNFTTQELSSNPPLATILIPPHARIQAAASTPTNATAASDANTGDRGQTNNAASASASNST

melting point [°C]	inhibition at 100 µM [30] [%]	Compound	inhibition at 10 µM [1] [%]	inhibition at 10 µM [2] [%]	inhibition at 10 µM [3] [%]	inhibition at 10 µM [6] [%]	inhibition at 10 µM [9] [%]	inhibition at 10 µM [10] [%]	inhibition at 10 µM [11] [%]	inhibition at 10 µM [12] [%]	inhibition at 10 µM [13] [%]	inhibition at 10 µM [15] [%]	inhibition at 10 µM [17] [%]	inhibition at 10 µM [20] [%]	inhibition at 10 µM [21] [%]	inhibition at 10 µM [22] [%]	inhibition at 10 µM [24] [%]	inhibition at 10 µM [25] [%]	inhibition at 10 µM [27] [%]	inhibition at 10 µM [29] [%]	also measured
280 to 281	24	COc1ccc(C=NNC(=O)COc2ncnc3sc4c(c23)CCCC4)c(OC)c1OC [5a, 2-((5,6,7,8-Tetrahydrobenzo [4,5]thieno[2,3-d]pyrimidin-4-yl)oxy)-N'-(2,3,4-trimethoxybenzylidene) acetohydrazide]	7.21	5.91	0.3	6.88	23.3	11.8	4.24	8.06	6.61	7.93	7.04	5	0.81	2.52	28.5	10.7	4.82	1.68	inhibition at 10 µM [4]: 1.47%; inhibition at 10 µM [5]: 0.79%; inhibition at 10 µM [7]: 0.3%; inhibition at 10 µM [8]: 2.96%; inhibition at 10 µM [14]: 2.18%; inhibition at 10 µM [16]: 1.37%; inhibition at 10 µM [18]: 2.15%; inhibition at 10 µM [19]: 5.39%; inhibition at 10 µM [23]: 5.93%; inhibition at 10 µM [26]: 0.3%; inhibition at 10 µM [28]: 0.55%; inhibition at 10 µM [30]: 6%
275 to 276	17	O=C(COc1ncnc2sc3c(c12)CCCC3)NN=Cc1ccc(Cl)cc1 [5b, N'-(4-Chlorobenzylidene)-2-((5,6,7,8-tetrahydrobenzo [4,5]thieno[2,3-d]pyrimidin-4-yl)oxy) acetohydrazide]	7.62	2.55	15.9	9.77	23.1	11.1	6.96	4.84	7.6	0.32	4.53	8.96	2.11	3.8	18.4	11.7	7.09	2	inhibition at 10 µM [31]: 3.11%; inhibition at 10 µM [32]: 2.71%; inhibition at 10 µM [4]: 11%; inhibition at 10 µM [7]: 2.81%; inhibition at 10 µM [8]: 6.05%; inhibition at 10 µM [33]: 4.13%; inhibition at 10 µM [14]: 0.71%; inhibition at 10 µM [18]: 1.63%; inhibition at 10 µM [34]: 0.39%; inhibition at 10 µM [35]: 4.36%; inhibition at 10 µM [26]: 4.27%; inhibition at 10 µM [30]: 3%
270 to 272	82	O=C(COc1ncnc2sc3c(c12)CCCC3)NNC(=S)Nc1ccccc1 [6a]		3.79	3.33	5.27	14.8	47	6.64	7.2	3.71	7.06	1.14	3.88	1.23	3.65	14.6	12.3	1.31	0.96	inhibition at 10 µM [32]: 3.86%; inhibition at 10 µM [5]: 2.64%; inhibition at 10 µM [36]: 1.5%; inhibition at 10 µM [37]: 3.1%; inhibition at 10 µM [19]: 5.09%; inhibition at 10 µM [34]: 0.95%; inhibition at 10 µM [23]: 2.42%; inhibition at 10 µM [38]: 0.17%; IC50 ([30]; five doses 10 nM–100 µM): 17.3 µM
320 to 321		O=C(COc1ncnc2sc3c(c12)CCCC3)NNC(=O)c1ccc([N+](=O)[O-])cc1 [6b]																			
